Reference: patent publication EP2769738B1, “Conjugated TLR7 and/or TLR8 and TLR2 polycationic agonists” (Invivogen, priority 2013, dated 2014)

Tests used:
Type in all cases: cell-based, mouse
B16-F1 cells = experiment: Cell transfection with SEAP plasmid, B16-F1; details: Figure 5B; in complex with pVitro14 LGFP SEAP plasmid, 48 hours, SEAP reporter gene expression
Protocol: The TLR7-TLR2 molecules were tested for their ability as polyamine molecules to transport plasmid DNA (pDNA) into cells. The pVitro14 LGFP SEAP plasmid (InvivoGen) was complexed to TLR7-TLR2 polyamine molecules and to the control cationic lipid transfection agent, LyoVec™ (InvivoGen). The human HEK293 (ATCC, CRL-1573) and mouse B16-F1 melanoma (ATCC, CRL-6323) cell lines were seeded at a density of 50 000 cells/well and 20 000 cells/well respectively, in the absence or presence of different volumes of the plasmid encoding for the SEAP protein in complex with TLR7-TLR2 polyamine molecules for 48 hours at 37°C and 10% CO2. Transfection efficiency was assessed by measuring SEAP reporter gene expression: 20 µl of supernatant was sampled and mixed with 180 µl of QUANTI-Blue™ Detection (InvivoGen). In the presence of alkaline phosphatase SEAP, the color of QUANTI-Blue™ changes from pink to purple/blue. The intensity of the blue hue reflects the activity of SEAP. The levels of SEAP secretion were determined quantitatively by reading the OD at 620-655 nm using a spectrophotometer, iMark™ Microplate Reader (BIO-RAD).

[1] = test system: ISG54 promoter activity in RAW-ISG54 reporter cells; experiment: IFN response assay, RAW-ISG54 luciferase reporter cells; details: Figure 6A, in complexes with pDNA 3:24 (w:w), overnight
Protocol: (§1) The effect of the pDNA:TLR7-TLR2 polyamine molecules complexes on inducing an interferon response was examined. pDNA:TLR7-TLR2 polyamine molecules mixtures (pDNA:TLR7-TLR2 polyamine molecules ratio 3:24, w:w) in serum-free medium or 5% glucose were prepared as described above and added to IFN reporter cells. Luciferase reporter cell lines were used to assay interferon response. A plasmid containing an interferon-inducible luciferase reporter gene was introduced into mouse RAW 264.7 macrophages and mouse B16 melanoma cells, giving rise to the RAW-ISG54 and B16-ISG54 reporter cell lines respectively. Expression of the luciferase reporter gene by the plasmid is under the control of an interferon-inducible promoter (I-ISG54) comprising five interferon-stimulated response elements (ISRE) and the minimal promoter of the human ISG-54K (Interferon Stimulation of a Gene encoding a 54 kDa protein) gene. The ISG-54K gene is induced by interferon regulatory factor 3 (IRF3), which has a key involvement in […] responses (Grandvaux et al. 2002) and the minimal promoter of the human ISG-54K gene contains two ISRE sites and fully inducible by type I interferons (IFN-α and IFN-β) and interferon regulatory factors (IRFs) (Wathelet et al. 1988; Grandvaux et al. 2002).
(§2) The RAW-ISG54 and B16-ISG54 reporter cell lines were seeded onto 96 well microtiter plates at 100,000 cells per well and 75,000 cells per well respectively. […] The induced luciferase expression was assessed in the reporter cell lines using a coelenterazine-base luminescence assay reagent, the Quanti-LucTM (InvivoGen). Secreted luciferase activity was determined by bioluminescence quantification of the cell culture media using a microplate luminometer (FLUOstar OPTIMA from BMG Labtech).

[2] = test system: ISG54 promoter activity in B16-ISG54 reporter cells; experiment: IFN response assay, B16-ISG54 luciferase reporter cells; details: Figure 6B, in complexes with pDNA 3:24 (w:w), overnight
Protocol: as §1, §2

Row | SMILES | ability to transfect B16-F1 cells (B16-F1 cells) | ability to induce an IFN response (ISG54 promoter activity) in RAW-ISG54 reporter cells [1] | ability to induce an IFN response (ISG54 promoter activity) in B16-ISG54 reporter cells [2]
1 | CCCCCCCCCCCCCCCC(=O)OCC(CSC[C@H](N)C(=O)N[C@@H](COC(=O)c1ccc(Cn2c(O)nc3c(N)nc(NCCCC)nc32)cc1)C(=O)NCCCNCCCCNCCCN)OC(=O)CCCCCCCCCCCCCCC (stereo partly drawn) [CL514, (6R,9S)-6,23-diamino-9-((4-((6-amino-2-(butylamino)-8-hydroxy-9H-purin-9-yl)methyl)benzoyloxy)methyl)-7,10-dioxo-4-thia-8,11,15,20-tetraazatricosane-1,2-diyl dipalmitate] | transfect B16-F1 cells | induce an IFN response in RAW-ISG54 reporter cells | induce an IFN response in B16-ISG54 reporter cells
2 | CCCCCCCCCCCCCCCC(=O)OCC(CSC[C@H](N)C(=O)N[C@@H](CCC(=O)NCCCNCCCCNCCCN)C(=O)Nc1ccc(Cn2c(O)nc3c(N)nc(NCCCC)nc32)cc1)OC(=O)CCCCCCCCCCCCCCC (stereo partly drawn) [CL527, (6R,9S)-6,25-diamino-9-(4-((6-amino-2-(butylamino)-8-hydroxy-9H-purin-9-yl)methyl)phenylcarbamoyl)-7,12-dioxo-4-thia-8,13,17,22-tetraazapentacosane-1,2-diyl dipalmitate] | transfect B16-F1 cells | induce an IFN response in RAW-ISG54 reporter cells | induce an IFN response in B16-ISG54 reporter cells
3 | CCCCCCCCCCCCCCCC(=O)OCC(CSC[C@H](N)C(=O)NCCCNCCCCNCCCNC(=O)CNC(=O)c1ccc(Cn2c(O)nc3c(N)nc(NCCCC)nc32)cc1)OC(=O)CCCCCCCCCCCCCCC (stereo partly drawn) [CL553, (20R)-20-amino-1-(4-((6-amino-2-(butylamino)-8-hydroxy-9H-purin-9-yl)methyl)phenyl)-1,4,19-trioxo-22-thia-2,5,9,14,18-pentaazapentacosane-24,25-diyl dipalmitate] | transfect B16-F1 cells | induce an IFN response in RAW-ISG54 reporter cells | induce an IFN response in B16-ISG54 reporter cells
